Test results taken from US8148070B2, “Genetic polymorphisms associated with coronary events and drug response, methods of detection and uses thereof” (Celera Corporation, priority 2007, dated 2012).

System: PROVE-IT patients
Assay: PROVE-IT (PROVE IT-TIMI 22) genetic study: high-dose atorvastatin vs standard-dose pravastatin, death or major cardiovascular events by KIF6 719Arg carrier status
Type: in vivo, human
Method: Patients were followed for 18 to 36 months, with an average follow-up of 24 months.
Of the 1,724 patients who met the criteria listed above, 1344 (78.0%) were male. […] This study was approved by institutional review boards of the Brigham and Women's Hospital and all participating centers.
KIF6 genotypes were determined using allele—specific real-time PCR as previously described. Cox proportional hazard models (Wald tests) were used to assess the effect of atorvastatin-treatment on incident CHD in the KIF6 719Arg carriers and noncarriers. Continuous variables tested were age, baseline LDL-C, and baseline HDL-C levels. Categorical variables tested were smoking (current versus non-current), hypertension, and baseline diabetes. All reported p values are two-sided.

CC(C)c1c(C(=O)Nc2ccccc2)c(-c2ccccc2)c(-c2ccc(F)cc2)n1CC[C@@H](O)C[C@@H](O)CC(=O)O [Atorvastatin, atorvastatin]
HR, Model 1 (CHD, atorvastatin vs pravastatin) (ArgArg + ArgTrp (carriers), adjusted for sex, age, smoking, hypertension, diabetes, LDL-C, HDL-C, antibiotic): 0.56 | HR, Unadjusted (CHD, atorvastatin vs pravastatin) (ArgArg + ArgTrp, 80 mg atorvastatin per day vs 40 mg pravastatin per day (ref)): 0.57 | On-trial CHD (ArgArg + ArgTrp, totals 509 (atorvastatin), 502 (pravastatin)): 76 Number of patients | HR, Model 1 (CHD, atorvastatin vs pravastatin) (TrpTrp (noncarriers), adjusted): 0.97 | HR, Unadjusted (CHD, atorvastatin vs pravastatin) (TrpTrp (noncarriers), pravastatin = ref): 0.99 | On-trial CHD (TrpTrp, totals 359 (atorvastatin), 352 (pravastatin)): 81 Number of patients | unadjusted hazard ratio at 30 days (carriers of the KIF6 719Arg allele, 30 days after randomization, atorvastatin vs pravastatin): 0.18 | reduction of relative risk of coronary events (carriers, high-dose atorvastatin vs standard-dose pravastatin): 44% | benefit of intensive therapy compared with moderate therapy (noncarriers, at any time point): no significant benefit
